These results are taken from US20140038953A1, “COMPOSITIONS AND METHODS FOR CARDIOVASCULAR DISEASE” (THE GENERAL HOSPITAL CORPORATION, priority 2011, published 2014).

The subject of one series is C57BL/6 mice. As to the kind of experiment: Blood biochemical analysis in WT mice fed a high fat diet. The format is in vivo. As for the experimental part:
Female mice deficient for the low density lipoprotein receptor (LDLR^−/−) on a C57BL/6 background with appropriate control mice mice (eight weeks of age) were obtained from Jackson Laboratories (Bar Harbor, Me.). Animals were fed a western style diet formulated to match Paigen's Atherogenic Rodent Diet (42% fat, 0.15% cholesterol, 19.5% casein; Research Diets Inc., New Brunswick, N.J.).
[…], white blood count, hematocrit, hemoglobin, and platelets were analyzed using a HemaTrue™ Hematology Analyzer (Heska AG, Switzerland). Urea nitrogen, glucose, alkaline phosphatase, total protein, alanine transaminase and creatinine were determined using a Spotchem EZ SP-4430 POCT analyzer (Arkray, Inc., Kyoto, Japan). HDL and LDL levels were determined using a fluorescence quantification kit (K613-100, Biovision, Mountain View, Calif.)

The nature of series [1]: Body weight, food intake and bone mineral density in LDLR−/− mice. Format: in vivo. To be noted: 2.5 mg/kg ip daily, vs vehicle.
A further series has as its target T1, HMG-CoA reductase (Homo sapiens, UniProt P04035).
T1 construct: purchased Sigma-Aldrich CS1090
T1 sequence (P04035 426-888 limits assumed): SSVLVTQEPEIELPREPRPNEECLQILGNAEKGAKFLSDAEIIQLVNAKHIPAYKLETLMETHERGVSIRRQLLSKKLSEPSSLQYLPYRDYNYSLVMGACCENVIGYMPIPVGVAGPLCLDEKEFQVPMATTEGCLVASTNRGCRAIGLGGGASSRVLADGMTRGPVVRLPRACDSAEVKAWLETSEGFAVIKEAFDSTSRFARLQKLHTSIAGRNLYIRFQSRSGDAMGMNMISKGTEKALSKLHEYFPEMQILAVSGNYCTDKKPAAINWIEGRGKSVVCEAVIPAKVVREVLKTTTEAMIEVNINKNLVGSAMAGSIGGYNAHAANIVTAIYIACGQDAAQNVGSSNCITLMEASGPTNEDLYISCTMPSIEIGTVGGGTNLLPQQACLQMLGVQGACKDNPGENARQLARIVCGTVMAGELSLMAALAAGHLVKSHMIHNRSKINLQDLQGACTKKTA
As to the kind of experiment: HMG-CoA reductase activity assay. To be noted: compound 13 at 50 nM and 100 nM. Format: biochemical. An excerpt:
Enzyme activity was quantified using a commercially available Assay Kit (CS1090 HMG-CoA Reductase Kit, Sigma-Aldrich, St. Louis, Mo.)

The next series deals with HepG2 cells. In words: ApoB-100 secretion in HepG2 cells (ELISA). Format: cell-based, human. To be noted: compound 13 100 nM, atorvastatin 1 nM, ALK3-Fc 400 ng/mL. As for the experimental part:
Hepatoma G2 (HepG2) cells and human aortic endothelial cells (HAECs) were purchased from the American type culture collection (Manassas, Va.). HepG2 cells were maintained in Eagle's Minimum Essential Medium (EMEM) supplemented with 10% fetal bovine serum, 100 units/ml of penicillin, 0.1 mg/ml of streptomycin and glutamine. HAECs were cultured in endothelial cell basal medium (EBM 2) supplemented with the EBM2 bullet kit (Lonza, Basel, Switzerland). For experiments, cells were seeded into 6 or 12-well plates (BD Falcon, Franklin Lakes, N.J.) at a concentration of 0.5×10^6 cells per 5 mL of media. HAECs were maintained in EBM 2 with 0.1% FBS without additional growth factors for all experiments. HepG2 cells were grown to 70% confluence before they were incubated in EMEM enriched with 0.1% FBS. ApoB-100 measurements were performed in supernatants from HepG2 that had been incubated in EMEM containing 0.5% bovine serum albumin using a commercially available Human ApoB-100 ELISA kit (Mabtech AB, Nacka Strand, Sweden). BMP2 protein measurements were performed in supernatants from HAECs that had been incubated in EBM2 containing 0.1% FBS using a BMP2 ELISA kit (R&D Systems).

Another series has as its system LDLR−/− mice. As to the kind of experiment: Hepatic steatosis in LDLR−/− mice on high fat diet. Format: in vivo. To be noted: high fat diet 20 weeks, 2.5 mg/kg ip daily. The procedure: Aortas were either immediately embedded and cryopreserved using optimal cutting-temperature medium (Sakura Tissue-Tek, Zoeterwoude, The Netherlands) or fixed in paraformaldehyde and embedded in parafin. The presence of calcification was determined by staining tissue sections with Alizarin red or Von Kossa. Lipid accumulation in tissue sections was visualized by staining with Oil Red O. Liver sections were prepared from paraformaldehyde-fixed tissue and stained with hematoxylin and eosin.

The subject of series [2] is constitutively-active mutant form of ALK2. As to the kind of experiment: Mouse model of FOP (constitutively-active mutant ALK2). The format is in vivo. To be noted: 3 mg/kg ip twice daily. The source says: A mouse model of FOP has been developed in which expression of a constitutively-active mutant form of ALK2 is induced by injecting the popliteal fossa of a genetically-modified mouse with an adenovirus directing expression of Cre recombinase. This model reproduces the ectopic calcification and disability seen in FOP patients.

Where [3] appears, read: female C57BL/6 WT mice, high fat diet 30 weeks, 2.5 mg/kg ip daily, mean ± SEM.

Molecules are shown by their SMILES. Entries after “also recorded” stand apart in the source; their conditions may differ.

Consider `c1ccc2c(-c3cnn4cc(-c5ccc(N6CCNCC6)cc5)cnc34)ccnc2c1` [Compound 13, 4-[6-(4-piperazin-1-ylphenyl)pyrazolo[1,5-a]pyrimidin-3-yl]quinoline], for which, in the series on C57BL/6 mice (setting [3]), the Alanine transaminase worked out at 159 ± 19 IU/L, the Alkaline phosphatase is on record as 109 ± 8 IU/L, the Blood urea nitrogen is 25 ± 1 mg/dL and the Cholesterol amounted to 183 ± 6 mg/dL. In the series with C57BL/6 mice (setting [3]), this compound returned a Creatinine of 0.5 ± 0.0 mg/dL, a Glucose of 311 ± 12 mg/dL, a Hemoglobin of 13.5 ± 1.0 g/dL and a Total protein of 4.7 ± 0.2 g/dL. For the same compound, in the series with C57BL/6 mice (setting [3]), the Triglycerides is 82 ± 21 mg/dL. Further, the “total serum cholesterol vs vehicle” value in the series on C57BL/6 mice (wild-type animals on a HFD, in words) was “reduced total serum cholesterol”. For the same compound, the “food intake per gram body weight” value in series [1] (6 weeks high fat diet, 2.5 mg/kg) was “did not differ significantly; also recorded: not associated with a reduction in body weight or food intake”. In series [1] (20 weeks high fat diet, 2.5 mg/kg), the body weight entry is “did not differ significantly; also recorded: not associated with a reduction in body weight or food intake”. Further, the “bone mineral density (femur, dual energy X-ray absorptiometry)” value in series [1] (HFD 20 weeks) is listed as “did not differ”. Also, the “HMG-CoA reductase enzyme activity in vitro” value at HMG-CoA reductase is “did not inhibit; also recorded: lack of impact”. In addition, the “BMP2-induced ApoB-100 secretion” value in the series on HepG2 cells (BMP2 100 ng/mL) is given as “blocked; also recorded: prevented the BMP2-mediated induction of ApoB-100 secretion”. In addition, the “basal ApoB-100 secretion (absence of BMP2)” value in the series with HepG2 cells is “reduced basal apolipoprotein B100 (ApoB-100) secretion; also recorded: inhibited ApoB-100 production”. For the same compound, in the series with LDLR−/− mice (2.5 mg/kg), the hepatic steatosis result is “protected from hepatic steatosis”. For the same compound, the hepatic steatosis result with LDLR−/− mice (listed as compound 13, 2.5 mg/kg) is on record as “could be prevented”. Besides, the “ectopic calcification and disability” value in series [2] is “prevented the ectopic calcification and disability”.
